Test: Human HepG2 cell viability assay in 384 well format
Format: toxicity, cell-based
Design: dose 125 nL, time 70.5 hour; concentration not given beside the values
Conditions: HepG2 cells, read-out: Inhibition

SMILES | cytotoxicity at 70.5 h [%]
C[C@@H]1C[C@@H]2CCN(C(=O)c3cnccn3)C[C@H]2O1 | -0.399
CSc1ccc(CNC(c2ccccc2F)c2nccn2C)cc1 (stereo not drawn) | 0.516
CCn1ccnc1CN1CCCN(C(=O)C2(C#N)CCCCC2)CC1 | -3.94
Cc1cc(C2CCCN2C(=O)CN2CCc3ccccc32)on1 (stereo not drawn) | -0.619
CCn1c(CC2CCN(C(=O)C3COCCO3)CC2)nn(C)c1=O (stereo not drawn) | 42.7
Cc1n[nH]c(C2CN(CCNC3CCCCC3)CCO2)n1 (stereo not drawn) | 3.49
COc1cc2c(nn1)CCN(Cc1nnc(Cc3ccccc3)o1)C2 | -3.6
CS(=O)(=O)c1ccc(OCCNCc2cccc(Cl)c2)cc1 | 23.8
Cc1ccc2c(c1)C(NC1CC1)CC21CCNCC1 (stereo not drawn) | 11
CCN1CC(COC(C)(C)C)Oc2ccncc2S1(=O)=O (stereo not drawn) | -4.84
Cc1cnn(C2CN(CC(O)c3ccc(F)cc3)C2)c1 (stereo not drawn) | -5.26
Fc1cccc(-c2nc(CN3CCOC(Cn4cccn4)C3)co2)c1 (stereo not drawn) | -11.5
COc1ccccc1OCC(=O)NCC(O)(c1cccs1)C1CC1 (stereo not drawn) | -5.23
Cc1nnc(CN(C)CC(=O)N2CCCC(C)CC2)n1C (stereo not drawn) | -8.63
O=C(CCC(F)(F)F)N1CCN(Cc2ccncc2)[C@@H]2CS(=O)(=O)C[C@@H]21 | 24
CCn1cc(N2Cc3nc(N4CCC(C)CC4)ncc3C2=O)cn1 | -8.76
CCOc1cc(/C=C/c2ncc(C(=O)O)s2)cc(Br)c1O | -11.1
Cc1nsc(N2CCN(Cc3cccc(F)c3)CC2)n1 | 0.252
O=C(c1c[nH]c(=O)[nH]c1=O)N1CCCC(c2nccn2CC2CCC2)C1 (stereo not drawn) | -24.3
CCn1ncc2c1C(COC)CN(Cc1ccc(OC)cc1)C2 (stereo not drawn) | -5.26
O=C(c1ccc[nH]1)N1CCCn2c(nnc2Cn2cccn2)C1 | -9.08
CS(=O)(=O)N1CCO[C@@H]2CN(Cc3ccc(F)cc3)C[C@@H]2C1 | -6.95
CCOc1ccc(C(=O)N2CCCC(c3nccn3C)C2)cc1OCC (stereo not drawn) | -5.34

SMILES | cytotoxicity at 70.5 h [%]
CN(C)C[C@H]1CC[C@@H](Cc2ccc3c(cnn3C)c2)O1 | -11.9
COCCCNCc1cc(O)c2cc(C)cc(C)c2n1 | -5.24
COc1cccc(CNc2nc(N3CCOCC3)ns2)c1OC | 15.5
CCOc1ccc2cc(C(=O)NCCNc3ccc(C)nn3)[nH]c2c1 | -8.09
Cc1cc(-n2cccn2)ccc1CN1C[C@@H](CN(C)C)[C@@H](CO)C1 | -8.41
CC(C)n1ncc2c1NC(=O)CSC2C(C)(C)C (stereo not drawn) | -2.79
CNC(=O)C1CCCCN1C(=O)Cc1csc(-c2ccc(C)o2)n1 (stereo not drawn) | -11.8
COc1cc(CCO)c(OC)c2c1OCO2 | -7.84
CCc1cnc(CNc2cccc3c2CCN(S(=O)(=O)CC)C3)o1 | -2.87
CN(C)[C@@H]1CN(Cc2cccnc2)C[C@H]1c1cn(C)c2ccccc12 | -2.36
COc1ccc(-c2cc(C3CCCCCN3S(C)(=O)=O)on2)cc1 (stereo not drawn) | -2.6
Cn1ccnc1CN1CCCN(C(=O)c2ccc3ccccc3c2)CC1 | 1.95
Cc1ccc(CN2Cc3c(C(=O)N(C)C)nn(C)c3C2)s1 | -3.13
CCc1noc(CN2CCN(C(=O)COC)CC2)n1 | 6.94
Cc1cc2nc(C(C)C)cc(N(C)CC3CCCN(CCO)C3)n2n1 (stereo not drawn) | -2.47
Cc1ccc(CN2CCN(C)c3ncccc3C2)o1 | -6.49
CNc1cc(C2CN(CC(=O)N(C)C)CCO2)nc(C)n1 (stereo not drawn) | -5.66
CN(Cc1n[nH]c2c1CCC2)C(=O)CCc1cc2n(n1)CCNC2 | -4.27
Cc1ccc(CN2C[C@H](OCC3CCN(C)CC3)[C@H]3COC[C@H]32)o1 | 4.22
Cc1nn(C)c(C)c1C1CCCN1C(=O)c1ccc2c(c1)OCCO2 (stereo not drawn) | -7.1
CN(CC(=O)NC(Cc1ccsc1)c1cccnc1)Cc1ccccn1 (stereo not drawn) | 31.3
Cn1cccc1C(=O)N1CC2(CCN(C(=O)c3cccnc3)C2)C1 | -7.36
c1cc(CN2CCc3c(CN4CCCC4)n[nH]c3C2)ccn1 | 23.4

SMILES | cytotoxicity at 70.5 h [%]
COC(=O)CCN1CCCC1c1cccc2c1OCCO2 (stereo not drawn) | -6.05
Cc1ccc(CN2C[C@H](C(=O)N3CCCCO3)[C@@H]3CCO[C@@H]3C2)o1 | -5.78
COCC(=O)N1CCOC(c2ccc(N(C)C)cn2)C1 (stereo not drawn) | 15.3
CC[S+](CC)[c-]1c(=O)[nH]c(=O)n(CCc2ccc(F)cc2)c1=O | 3.7
NC(=O)C1(CCCc2ccccn2)CCCN(CCO)C1 (stereo not drawn) | -4.87
CCOc1ncccc1C(=O)N1CCCC1c1c(C)nn(C)c1OC (stereo not drawn) | 1.14
CCCn1ncc(CN2C[C@@H]3CCCN3C[C@H]2Cc2ccccc2)c1C | 23.6
CS(=O)(=O)N1CCCCC12CCN(C(=O)c1ccccc1)C2 (stereo not drawn) | -8.78
CCN(C(=O)Cn1cc(NC(=O)C(C)(C)C)cn1)c1ccccc1 | -0.681
CN(C)C(=O)C1CCCN1CCCNC(=O)c1ccccc1Cl (stereo not drawn) | 4.52
COC1CCCN(C(=O)Nc2nc(C)n(C)n2)C1 (stereo not drawn) | -8.2
O=C(c1ccncc1)N1CCN(c2ccc(F)cc2Cl)CC1 | 18.4
Cc1nn(C)c2nc(N3CCC(C(O)c4ccccn4)CC3)sc12 (stereo not drawn) | -0.933
CC(C)c1cc(NC(=O)CN2CCCC2c2noc(C(C)C)n2)on1 (stereo not drawn) | -12
Cc1ccc(NC2(C(=O)NC(C)c3ncn[nH]3)CCCC2)cc1 (stereo not drawn) | 6.6
CCc1nc(CNCCn2cc(C)cn2)no1 | -5.71
CC(C)c1cccc(NC(=O)Cn2c(=O)n(C)c(=O)c3sccc32)c1 | 5.39
Cc1nc(C2CCN(C(=O)c3ccn(C)n3)CC2)c2sccn12 | -5.98
CCc1ccc(S(=O)(=O)N2CCCn3ncnc32)s1 | -3.85
Cc1cnn(CC2CCCCN2Cc2nc(N)c3ccccc3n2)c1 (stereo not drawn) | -6.17
O=C(O)[C@]12CCCN(Cc3nccs3)[C@@H]1CCN(c1cnccn1)C2 | -5.49
COc1ccc2c(c1)CCCN2Cc1nc(C)c(C)o1 | -4.99
C[C@@H]1CN(C2(C(=O)N3CCSCC3)Cc3ccccc3C2)C[C@H](C)O1 | 2.94

SMILES | cytotoxicity at 70.5 h [%]
CCCN1CCC[C@]2(CCC(=O)N2Cc2ccncc2)[C@H]1CC | -4.44
Cc1occc1C(=O)N1CCC(C(O)c2ccc(F)cc2)CC1 (stereo not drawn) | -4.29
O=C(c1cnn2c1OCCC2)N1CCC2(CC1)OCCO2 | -1.08
c1cncc(CNCCc2cccs2)c1 | -9.29
Cn1cnnc1CN1CCC2(CCCN(C3CCCC3)C2=O)C1 (stereo not drawn) | 1.29
CC(C)=CCN1C[C@H]2CC[C@@H]1CN(C(=O)c1ccc3c(c1)OCO3)C2 | 1.98
CCOC(=O)CN1CC(c2nc(-c3ccsc3)no2)C1 | 0.957
Cc1ccc2[nH]c(CN(C)Cc3ccccc3C(=O)O)nc2c1 | -7.29
COCCC1(CO)CCCN(Cc2ccc(F)c(C)c2)C1 (stereo not drawn) | -6.14
CCN(CC)c1ccc(CNC(=O)c2cccc(C)n2)cn1 | 11.5
CC(=O)N1Cc2ccccc2C[C@H]1C(=O)N(C)Cc1ccccn1 | -14.8
CC(=O)N1CCC(c2nccnc2C)CC1 | -1.76
CC(C)C(=O)Nc1ccc(C(O)Cn2nc(-c3cccs3)oc2=O)cc1 (stereo not drawn) | 28.2
COCCC(=O)N1CC[C@@H](N(C)C)[C@@H]1Cc1ccccc1 | -3.88
Cn1cc(N2C(=O)CC[C@@H]3[C@H]2CCN3C(=O)c2cscn2)cn1 | -10.2
CN(C)C(=O)CN1C[C@@H]2CC[C@H](C1)N(C/C=C/c1ccc(F)cc1)C2 | -0.0436
Cc1nccn1-c1ccc(CNC(=O)c2ccc(O)nc2)cn1 | -9.46
CN(C)C(=O)N1CCC2(CC1)C(=O)N(CC1CCOC1)c1ccccc12 (stereo not drawn) | -9.22
Cc1cc(C)n(C2CCCN(C(=O)c3cc(C4CC4)on3)C2)n1 (stereo not drawn) | 0.784
Cc1cccc(C(=O)Oc2cc(=O)n3cccc(C)c3n2)c1 | -5.1
O=S(=O)(NC1=NCN(CCc2cccs2)CN1)c1ccc(Cl)cc1 | -14.8
Cc1ccc(S(=O)(=O)N(C)CC(C)O)c(F)c1 (stereo not drawn) | 21.4
Cc1ccccc1OCCSc1nnc(CC2CCS(=O)(=O)C2)n1C (stereo not drawn) | -7.8

SMILES | cytotoxicity at 70.5 h [%]
CC(=O)N1CCc2[nH]nc(C(=O)N3CCOCC3)c2C1 | -4.57
CCc1cc(N(C)Cc2nonc2C)nc(N2CCOCC2)n1 | 1.99
CC(NC(N)=O)C(=O)N(C)CCCc1cc(-c2ccccc2)no1 (stereo not drawn) | -21.7
CC(Cn1cccn1)NC(=O)N1CCN(Cc2ccco2)CC1 (stereo not drawn) | 0.805
CCc1noc(C)c1C(=O)N1CCCC1Cn1cccn1 (stereo not drawn) | -3.75
O=C(c1ccc[nH]1)N1C[C@H](OCc2cccnc2)[C@H]2COC[C@H]21 | 5.01
CC(C)(C)OC(=O)N1CCCN(Cc2ccon2)c2ccccc21 | 9.4
CN1CCC(N(C)C(=O)Nc2ccc(Cl)cc2)CC1 | -2.16
COCc1nc2cc(NCc3scnc3C)ccc2o1 | -5.1
c1nnc(Nc2cncc(C3CCCN3)n2)s1 (stereo not drawn) | -7.63
CCN(CC)Cc1cnc2n1CCN(C1CCOC1)CC2 (stereo not drawn) | -1.04
O=S1(=O)C[C@@H]2[C@H](C1)N(Cc1ccoc1)CCN2Cc1ccncc1 | -5.67
CCCS(=O)(=O)N1CCC2(CCC(=O)N(CCc3cccnc3)C2)CC1 | -10.9
Cc1ccc(C(=O)N2CCc3ncc(Cn4cccn4)n3CC2)cn1 | -6.29
c1cc(NC2CC3(CCN(Cc4cc[nH]n4)C3)C2)ncn1 (stereo not drawn) | -16.2
Cc1ncc2c(n1)CN(CC(=O)NCCOc1ccccc1)CC2 | -11.5
c1cnc(N2CCC3(COCCN(CC4CC4)C3)C2)nc1 (stereo not drawn) | -21.1
Cc1cnn(CCNCc2csc(-c3ccc(C)o3)n2)c1 | 19.9
O=C(NCC(O)c1ccccc1C(F)(F)F)c1cccnc1 (stereo not drawn) | -11
Cc1nc(N2CCOCC2)nc2c1COCC21CCN(CC2CC2)C1 (stereo not drawn) | 8.58
CCn1ccnc1CN1CCN(c2ncnc3ccsc23)CC1 | -3.44
